Measurements from patent publication US6592894B1, “Hydrogel-isolated cochleate formulations, process of preparation and their use for the delivery of biologically relevant molecules” (BioDelivery Sciences International, Inc., priority 1999, dated 2003).

System: Candida albicans
Test: Fungicidal effect, ratio of colony forming units to total cell number
Assay type: cell-based
Settings: 0.625 μg AmB/ml, after 30 hours of incubation
Method: Aliquots of yeast cells (50 μl) were removed from the 96 well plates and serially diluted (up to 1:10000 for plating onto agar plates) and counted using a hemocytometer. Fifty μl of the diluted yeast cells were plated onto YPD agar plates and incubated for 24 hours at 37° C. Yeast colonies were counted using a BioRad Fluor-S Multi-Imager equipped with Quanitity One™ software.
Yeast cells treated with AmBisome, AmB/DMSO and AmB/cochleates (0.625 μg AmB/ml) were examined for the ratio of colony forming units to total cell number after 30 hours of incubation. […] The AmBisome was not as effective, resulting in 52% yeast viability (FIG. 7).

**Q.** Which “yeast viability (ratio of colony forming units to total cell number)” value does the source give for C[C@@H]1[C@H](O)[C@@H](C)/C=C/C=C/C=C/C=C/C=C/C=C/C=C/[C@H](O[C@@H]2O[C@H](C)[C@@H](O)[C@H](N)[C@@H]2O)C[C@@H]2O[C@](O)(C[C@@H](O)C[C@@H](O)[C@H](O)CC[C@@H](O)C[C@@H](O)CC(=O)O[C@H]1C)C[C@H](O)[C@H]2C(=O)O [AmB/DMSO, Amphotericin B] here?
**A.** 12%
